In patent publication US9598365B2, “Method for synthesizing cycloalkanyl[b]indoles, cycloalkanyl[b]benzofurans, cycloalkanyl[b]benzothiophenes, compounds and methods of use” (Trustees of Dartmouth College, priority 2012, dated 2017):
Several values for one entry are separate records, joined by “and”; a condition that tells them apart may be missing. Equal values may be shown once.

Assays:
[1] = target: T1, hHK2 (Homo sapiens, UniProt P52789); test: Hexokinase 2 inhibitor, hHK2 ADP-FP; type: biochemical
T1 sequence (P52789 1-917): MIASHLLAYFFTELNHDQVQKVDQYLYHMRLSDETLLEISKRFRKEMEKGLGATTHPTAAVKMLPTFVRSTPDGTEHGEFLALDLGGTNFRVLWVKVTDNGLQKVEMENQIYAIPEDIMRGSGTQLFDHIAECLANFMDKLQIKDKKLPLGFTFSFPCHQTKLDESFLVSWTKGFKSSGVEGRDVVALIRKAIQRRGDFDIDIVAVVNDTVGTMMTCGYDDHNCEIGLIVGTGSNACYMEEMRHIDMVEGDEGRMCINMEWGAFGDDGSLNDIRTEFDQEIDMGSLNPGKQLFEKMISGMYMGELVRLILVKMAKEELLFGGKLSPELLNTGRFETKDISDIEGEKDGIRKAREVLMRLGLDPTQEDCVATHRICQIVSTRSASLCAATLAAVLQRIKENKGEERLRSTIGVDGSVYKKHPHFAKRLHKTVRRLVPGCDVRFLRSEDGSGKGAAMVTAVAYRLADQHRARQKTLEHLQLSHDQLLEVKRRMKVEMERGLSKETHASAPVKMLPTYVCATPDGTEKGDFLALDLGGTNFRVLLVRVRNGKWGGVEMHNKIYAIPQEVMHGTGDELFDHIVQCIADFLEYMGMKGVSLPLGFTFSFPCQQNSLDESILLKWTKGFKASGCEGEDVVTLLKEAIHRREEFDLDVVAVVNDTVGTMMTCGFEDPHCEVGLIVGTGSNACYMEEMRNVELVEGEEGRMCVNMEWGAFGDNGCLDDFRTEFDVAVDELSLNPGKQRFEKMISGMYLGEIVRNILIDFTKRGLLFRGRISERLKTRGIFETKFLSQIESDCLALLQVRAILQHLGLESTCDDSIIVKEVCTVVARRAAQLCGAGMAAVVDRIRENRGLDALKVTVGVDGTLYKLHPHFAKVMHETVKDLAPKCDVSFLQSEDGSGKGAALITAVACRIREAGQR
Excerpt: (§1) Selected compounds of this invention were screened for K-Ras Wnt synthetic lethal, anti-angiogenic activity, Wnt pathway modulatory activity, insulin and GLP-1 secretion modulatory activity, GPR119 receptor agonist activity, mGlu2R antagonist activity, CGRP receptor antagonist activity, Apelin receptor agonist activity and hexokinase 2 inhibitory activity using the PD^2 and TD^2 Screening Panel (Eli Lilly & Company). See Lee, et al. (2011) J. Biomol. Screen. 16:588-602.

[2] = test system: Co1o320; test: K-Ras Wnt synthetic lethal, Co1o320 KrasSL; type: cell-based; conditions: read-out: Co1o320 KrasSL % Inhibit
Excerpt: as §1

[3] = test system: hNCI-H716; test: hNCI basal LDH secretion; type: cell-based; conditions: read-out: Primary CRC (EC50, μM) hNCI Basal
Method: (§2) In light of the above results, additional compounds (Table 7) were prepared and phenotypic assays were carried out using hNCI-H716 and mSTC-1 cell lines to monitor GLP-1 secretion (single point (SP) and concentration response curves (CRC)) (Table 8), as well as a secondary assay with pituitary cells (Table 9).

[4] = target: T2, hGPR119 (Homo sapiens, UniProt Q8TDV5); test: GPR119 receptor agonist, hGPR119 agonism; type: cell-based; conditions: @ 10 μM
T2 sequence (Q8TDV5 1-335): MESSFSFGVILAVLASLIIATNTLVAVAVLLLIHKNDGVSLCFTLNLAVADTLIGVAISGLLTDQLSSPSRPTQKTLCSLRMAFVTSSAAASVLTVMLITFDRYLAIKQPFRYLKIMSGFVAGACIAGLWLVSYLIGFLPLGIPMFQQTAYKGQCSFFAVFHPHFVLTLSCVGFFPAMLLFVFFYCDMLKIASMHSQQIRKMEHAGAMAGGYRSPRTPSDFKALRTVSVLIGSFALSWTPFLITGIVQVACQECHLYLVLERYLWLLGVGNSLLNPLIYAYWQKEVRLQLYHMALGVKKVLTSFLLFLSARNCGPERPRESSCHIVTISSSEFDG
Excerpt: as §1

[5] = test system: SNU-C1; test: K-Ras Wnt synthetic lethal, SNU-C1 KrasSL; type: cell-based; conditions: Homo sapiens, read-out: SNU-C1 KrasSL % Inhibit
Excerpt: as §1

[6] = test system: Pituitary Cells; test: Secondary assay, pituitary cells growth hormone secretion; type: cell-based; conditions: @ 3.3 μM
Method: as §2

[7] = target: hMGLUR2 (Homo sapiens, UniProt Q14416); test: mGlu2R antagonist, hMGLUR2; type: cell-based
Excerpt: as §1

[8] = test system: Wnt Pathway; test: Wnt pathway modulatory activity, Osteo bCat; type: cell-based
Excerpt: as §1

[9] = test system: Angio Tube Area; test: Anti-angiogenic activity, Angio Tube Area; type: cell-based; conditions: read-out: Angio Tube Area % Inhibit
Excerpt: as §1

[10] = test system: RKO; test: K-Ras Wnt synthetic lethal, RKO KrasSL; type: cell-based; conditions: Homo sapiens, average of three independent experiments, read-out: RKO KrasSL % Inhibit
Excerpt: as §1

[11] = test system: GLP-1 (X-36 amide); test: Plasma GLP-1 response to oral compound in mice; type: in vivo, Mice (male C57BL/6); conditions: oral 100 mg/kg, plasma 30 minutes post-dose
Method: (§3) Mice (male C57BL/6, 8-10 weeks of age) were fasted overnight by being placed in a clean cage without food. The next day, all mice were weighed and assigned to groups of similar body weights. Test compounds were formulated in 1% HEC, 0.25% TWEEN 80, 0.05% antifoam (vehicle control). Compounds 11ls and llu were orally dosed (100 mg/kg) and cardiac sticks were done on CO2 euthanized mice at 30 minutes post-dose. Blood (500+μL whole blood) from the cardiac stick was placed in chilled EDTA-plasma tubes with inhibitors, DPP4 inhibitor (5 μL/500 μL blood) and aprotinin (bovine lung, […]/500 μL blood), and stored on ice. Plasma was separated by centrifugation and aliquoted for compound exposure to total GIP and GLP-1 (X-36 amide). Plates for compound exposure were analyzed for absorption, distribution, metabolism, and excretion, while conventional kits were used for GLP-1 (x-36) amide (Mesoscale) and GIP (Millipore) analyses.

[12] = test system: GIP; test: Plasma GIP response to oral compound in mice; type: in vivo, Mice (male C57BL/6); conditions: oral 100 mg/kg, plasma 30 minutes post-dose
Method: as §3

[13] = test system: hNCI-H716; test: hNCI-H716 GLP-1 secretion; type: cell-based
Excerpt: as §1, §2

Sequence of hMGLUR2 (Q14416 19-872): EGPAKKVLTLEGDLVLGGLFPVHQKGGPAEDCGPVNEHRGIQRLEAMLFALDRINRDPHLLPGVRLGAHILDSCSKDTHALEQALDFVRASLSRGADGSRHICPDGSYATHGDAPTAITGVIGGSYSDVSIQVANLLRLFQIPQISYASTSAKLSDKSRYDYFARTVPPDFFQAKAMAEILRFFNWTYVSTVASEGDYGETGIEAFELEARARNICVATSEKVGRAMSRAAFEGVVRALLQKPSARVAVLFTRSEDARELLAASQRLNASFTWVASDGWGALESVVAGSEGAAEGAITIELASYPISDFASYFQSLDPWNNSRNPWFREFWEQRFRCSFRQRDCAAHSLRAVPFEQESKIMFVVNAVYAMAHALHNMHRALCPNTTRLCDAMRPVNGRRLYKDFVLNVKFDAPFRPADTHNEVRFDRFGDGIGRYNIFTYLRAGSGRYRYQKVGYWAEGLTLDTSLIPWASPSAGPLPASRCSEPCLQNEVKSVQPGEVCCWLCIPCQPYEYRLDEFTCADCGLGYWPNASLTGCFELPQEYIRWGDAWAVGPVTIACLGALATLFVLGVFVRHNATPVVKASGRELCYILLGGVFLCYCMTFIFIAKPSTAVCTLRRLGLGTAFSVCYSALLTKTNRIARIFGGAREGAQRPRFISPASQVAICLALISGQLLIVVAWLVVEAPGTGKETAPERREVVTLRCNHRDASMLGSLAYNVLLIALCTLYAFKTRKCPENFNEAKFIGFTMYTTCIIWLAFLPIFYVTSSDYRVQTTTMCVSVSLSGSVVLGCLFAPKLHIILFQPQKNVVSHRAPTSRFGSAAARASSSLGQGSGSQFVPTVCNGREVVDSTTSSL

Compound: CC1(C)c2c([nH]c3ccc(Cl)cc23)C2C=CC1C2 (stereo not drawn) [Compound 11s]
- inhibition at 20 µM [1]: 5.5%
- inhibition at 0.2 µM ([2]; @ 0.2 μM): 33.3%
- inhibition at 2 µM ([2]; @ 2 μM): 15.8%
- inhibition at 20 µM ([2]; @ 20 μM): 150%
- EC50 [3]: > 40 µM
- hGPR119 agonism % Stimulation [4]: −5.1%
- inhibition at 0.2 µM ([5]; @ 0.2 μM): 15.7%
- inhibition at 2 µM ([5]; @ 2 μM): 5.5%
- inhibition at 20 µM ([5]; @ 20 μM): 106%
- Pituitary Cells (Growth Hormone Secretion, % Stimulation) [6]: −10.0% and −17.7% and −18.6%
- inhibition at 50 µM [7]: -20.4%
- Osteo bCat % Stimulation ([8]; @ 2 μM): 1.3%
- Osteo bCat % Stimulation ([8]; @ 10 μM): 9.3%
- inhibition at 2 µM ([9]; @ 2 μM): 21.7%
- inhibition at 10 µM ([9]; @ 10 μM): 21.8%
- inhibition at 0.2 µM ([10]; @ 0.2 μM): -2.8%
- inhibition at 2 µM ([10]; @ 2 μM): 14.4%
- inhibition at 20 µM ([10]; @ 20 μM): 102%
- Avg. GLP-1 (pg/mL) ±SEM [11]: 5.52 ± 1.18 pg/mL
- Avg. GIP (pg/mL) ±SEM [12]: 23.42 ± 7.44 pg/mL
- activation at 2 µM ([13]; 2 μM, GLP-1 secretion, single point, read-out: Primary SP hNCI (% Stim.)): -1.7%
- activation at 20 µM ([13]; 20 μM, GLP-1 secretion, single point, read-out: Primary SP hNCI (% Stim.)): 108%
- hNCI GLP-1 Secretion % Stimulation ([13]; @ 2 μM): −1.7%
- hNCI GLP-1 Secretion % Stimulation ([13]; @ 20 μM): 108%
- EC50 ([13]; GLP-1 secretion, concentration response curve, read-out: Primary CRC (EC50, μM) hNCI): 34.8 µM and 33.5 µM and 23.2 µM and > 40 µM
- EC50 ([13]; average of three independent experiments, read-out: hNCI GLP-1 Secretion EC50): 34.8 µM
- EC50 ([13]; secretion and/or production of GLP-1, read-out: EC50 values (Table 6)): 35 µM
